The target in one test is T1, DAPK3 (Homo sapiens, UniProt O43293).
T1 construct: purchased DiscoveRx (Fremont, CA), KinomeScan service
Description: KinomeScan. Format: binding. Particulars: read-out: % Control.

For another test, the target named is T2, S1P1 (Homo sapiens, UniProt P21453).
T2 construct: host or cells: Chem-1 cells with Gα15
Description: GPCR Profiler. The test is classed as cell-based.

The target in another test is T3, CXCR4 (Homo sapiens, UniProt P61073).
T3 construct: host or cells: Chem-1 cells with Gα15
T3 sequence (P61073 whole entry, species assumed): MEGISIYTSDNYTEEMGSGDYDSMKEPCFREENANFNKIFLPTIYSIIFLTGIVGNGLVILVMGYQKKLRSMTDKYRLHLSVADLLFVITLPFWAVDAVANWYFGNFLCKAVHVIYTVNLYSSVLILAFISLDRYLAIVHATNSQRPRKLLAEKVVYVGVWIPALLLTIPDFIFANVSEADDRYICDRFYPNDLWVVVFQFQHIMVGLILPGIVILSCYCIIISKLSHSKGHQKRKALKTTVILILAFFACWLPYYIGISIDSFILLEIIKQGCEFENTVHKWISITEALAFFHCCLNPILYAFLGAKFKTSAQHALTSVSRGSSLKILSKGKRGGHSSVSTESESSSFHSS
Put plainly: GPCR Profiler. Format: cell-based.

Another test deals with T4, BRK (Homo sapiens, UniProt Q13882).
T4 construct: purchased DiscoveRx (Fremont, CA)
T4 sequence (Q13882 whole entry): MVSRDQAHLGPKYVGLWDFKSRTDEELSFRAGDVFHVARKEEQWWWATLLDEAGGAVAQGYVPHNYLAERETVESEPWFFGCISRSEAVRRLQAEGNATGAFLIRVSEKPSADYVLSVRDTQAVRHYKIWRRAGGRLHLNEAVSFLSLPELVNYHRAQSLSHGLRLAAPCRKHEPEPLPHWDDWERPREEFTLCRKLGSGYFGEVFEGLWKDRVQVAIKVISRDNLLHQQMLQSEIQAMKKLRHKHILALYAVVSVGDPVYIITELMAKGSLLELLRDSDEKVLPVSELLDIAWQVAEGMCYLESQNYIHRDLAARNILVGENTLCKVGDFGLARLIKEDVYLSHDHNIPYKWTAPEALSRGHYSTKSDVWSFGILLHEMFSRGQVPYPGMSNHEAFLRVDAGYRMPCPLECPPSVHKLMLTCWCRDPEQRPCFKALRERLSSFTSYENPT
Description: KinomeScan. The test is classed as binding. To be noted: read-out: % Control.

A further test concerns the target T5, MEK3 (Homo sapiens, UniProt P46734).
T5 construct: purchased DiscoveRx (Fremont, CA)
Put plainly: KinomeScan. The test is classed as binding. To be noted: read-out: % Control.

The target of the next test is T6, HIPK2 (Homo sapiens, UniProt Q9H2X6).
T6 construct: purchased DiscoveRx (Fremont, CA)
Description: KinomeScan. To be noted: read-out: % Control. The test is classed as binding.

For another test, the target named is T7, C5aR (Homo sapiens, UniProt P21730).
T7 construct: host or cells: Chem-1 cells with promiscuous Gα15
T7 sequence (P21730 whole entry, species assumed): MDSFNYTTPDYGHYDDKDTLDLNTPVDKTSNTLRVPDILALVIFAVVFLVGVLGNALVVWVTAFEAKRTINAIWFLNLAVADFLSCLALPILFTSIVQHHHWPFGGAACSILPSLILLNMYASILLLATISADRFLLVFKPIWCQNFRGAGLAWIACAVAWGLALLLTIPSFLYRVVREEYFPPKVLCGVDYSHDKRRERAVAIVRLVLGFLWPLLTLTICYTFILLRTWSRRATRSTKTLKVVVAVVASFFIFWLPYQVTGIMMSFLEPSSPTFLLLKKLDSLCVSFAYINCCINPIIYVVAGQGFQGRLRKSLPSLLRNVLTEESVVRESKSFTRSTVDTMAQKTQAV
Put plainly: GPCR Profiler. Format: cell-based.

A further test concerns the target T8, MELK (Homo sapiens, UniProt Q14680).
T8 construct: purchased DiscoveRx (Fremont, CA)
Put plainly: KinomeScan. The test is classed as binding. Particulars: read-out: % Control.

The target in the next test is T9, PTH1 (Homo sapiens, UniProt Q03431).
T9 construct: host or cells: Chem-1 cells with Gα15
T9 sequence (Q03431 27-593): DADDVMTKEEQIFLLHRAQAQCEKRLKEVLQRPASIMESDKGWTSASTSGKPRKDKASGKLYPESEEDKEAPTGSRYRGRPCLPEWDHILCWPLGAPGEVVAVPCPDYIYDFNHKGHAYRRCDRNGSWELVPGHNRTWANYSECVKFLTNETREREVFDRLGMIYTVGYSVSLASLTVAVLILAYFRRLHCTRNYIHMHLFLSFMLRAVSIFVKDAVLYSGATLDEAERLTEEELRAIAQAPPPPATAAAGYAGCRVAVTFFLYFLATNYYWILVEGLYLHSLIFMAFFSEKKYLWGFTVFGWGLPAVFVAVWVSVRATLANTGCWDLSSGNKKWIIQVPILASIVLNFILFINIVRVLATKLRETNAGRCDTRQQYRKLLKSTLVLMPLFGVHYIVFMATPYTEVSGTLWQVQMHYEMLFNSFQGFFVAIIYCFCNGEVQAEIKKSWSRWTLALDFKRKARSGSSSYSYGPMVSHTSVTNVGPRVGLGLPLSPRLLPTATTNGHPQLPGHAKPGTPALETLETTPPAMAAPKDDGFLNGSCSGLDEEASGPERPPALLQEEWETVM
Description: GPCR Profiler. The test is classed as cell-based.

The target of a further test is T10, MCHR2 (Homo sapiens, UniProt Q969V1).
T10 construct: host or cells: Chem-1 cells expressing Gα15
T10 sequence (Q969V1 whole entry, species assumed): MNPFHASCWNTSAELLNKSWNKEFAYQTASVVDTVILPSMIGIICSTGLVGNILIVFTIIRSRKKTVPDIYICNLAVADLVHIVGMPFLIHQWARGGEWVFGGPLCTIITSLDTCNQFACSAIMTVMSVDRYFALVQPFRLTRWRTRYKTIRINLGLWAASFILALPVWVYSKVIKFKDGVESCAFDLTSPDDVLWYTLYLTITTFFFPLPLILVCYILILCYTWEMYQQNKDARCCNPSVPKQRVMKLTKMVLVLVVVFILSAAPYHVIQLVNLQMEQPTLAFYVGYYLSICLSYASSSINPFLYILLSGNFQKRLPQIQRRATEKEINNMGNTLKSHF
Put plainly: GPCR Profiler. Format: cell-based.

Another test addresses T11, MST1 (Homo sapiens, UniProt Q13043).
T11 construct: purchased DiscoveRx
Put plainly: KinomeScan. The test is classed as binding. Particulars: read-out: % Control.

For the next test, the target named is T12, ERK3 (Homo sapiens, UniProt Q16659).
T12 construct: purchased DiscoveRx (Fremont, CA)
Put plainly: KinomeScan. Format: binding. To be noted: read-out: % Control.

For test [1], the target named is T13, RPS6KA5(Kin.Dom.1-N-terminal) (Homo sapiens, UniProt O75582).
T13 construct: RPS6KA5(Kin.Dom.1-N-terminal); purchased DiscoveRx (Fremont, CA)
T13 sequence (O75582 49-318 limits assumed): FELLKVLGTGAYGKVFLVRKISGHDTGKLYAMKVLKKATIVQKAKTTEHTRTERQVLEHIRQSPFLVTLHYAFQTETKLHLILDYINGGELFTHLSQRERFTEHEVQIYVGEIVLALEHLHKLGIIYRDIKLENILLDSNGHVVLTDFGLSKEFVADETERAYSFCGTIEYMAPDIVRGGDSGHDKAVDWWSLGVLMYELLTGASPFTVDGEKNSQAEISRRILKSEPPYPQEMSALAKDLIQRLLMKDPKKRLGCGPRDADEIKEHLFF
Put plainly: KinomeScan. Format: binding. To be noted: read-out: % Control.

Another test addresses T14, MAP3K15 (Homo sapiens, UniProt Q6ZN16).
T14 construct: purchased DiscoveRx (Fremont, CA)
Description: KinomeScan. Format: binding. To be noted: read-out: % Control.

A further test has as its target CSNK2A2 (Homo sapiens, UniProt P19784). Put plainly: KinomeScan. Format: binding. To be noted: read-out: % Control.
In test [2] the test system is patient derived GBM lines. Put plainly: qPCR of ferroptosis markers. To be noted: 3 days. Format: cell-based, human. The source says:
cDNAs were generated using High-Capacity cDNA Reverse Transcription Kit with RNase Inhibitor (ThermoFisher, […]). Samples were run on a Quant Studio 5 real-time PCR system (Applied Biosystems™) with TaqMan™ Universal Master Mix II, with UNG (ThermoFisher, 4440042). Primers used were GAPDH: Hs02786624g1, GPR68: Hs00268858s1, ATF4: Hs00909569_g1, CHAC1: Hs00225520_m1, SLC7A11: Hs00921938_m1, HMOX1: Hs01110250_m1, TFRC: Hs00951083_m1.
Separate biological replicates of pdx and neurosphere cells treated with OGM for 3 days were generated. RNA was isolated, cDNA generated and qPCR was conducted on select key markers of ferroptosis (ATF4. CHAC1, HMOX1, TFRC, and SLC7A11) that were seen as dysregulated in RNAseq.
A general note: Real-time PCR tracks product formation cycle by cycle.

For a further test, the system named is Panc02. Description: Cell Titer-Glo viability, Pancreatic adenocarcinoma. The test is classed as cell-based. On the procedure:
(§1) OGM2 kills wide variety of cancer cell types. Cell sensitivity can be classified in to Very Sensitive (LC50<2 μM), Sensitive (LC50=2 to 10 μM), Mildly Sensitive (LC50>10 μM), and Refractory (no killing at 10 μM). The listed established cell were incubated with OGM2 at 2 μM or 10 μM for 72 hours under standard cell culture conditions, and relative cell number was assessed using Cell Titer-Glo Luminescent Cell Viability Assay (Promega™) following the manufacturer's instructions. Luminescence was determined using a Cytation 5 reader and Gen5 software package (BioTek™).
(§2) Cancer cells, which are very sensitive to killing by OGM2 (LCs <2 μM), with reported mRNA expression of GPR68 and the related proton sensing receptor GPR4. LC50's (concentrations causing 50% lethality) were determined using CellTiter-Glo (Promega™, G7570). Cells were plated in 12-well plates (CELLTREAT Scientific Products, 229112) in 1 ml of DMEM with high glucose, GlutaMAX, HEPES, or RPMI 1640 with Penicillin-Streptomycin (ThermoFisher™, 10564029, 11875119 and 15140122) and 10% FBS. Cells were incubated overnight at 37° C. in 5% CO2. Then 1 mL of fresh media was added with DMSO, OGM, or positive control (Erastin; APExBIO Technology, LLC, B1524) and cells incubated for 3 days. On the third day, all media was removed, cells were rinsed with 1×PBS, PBS was removed, and 200 μL of 1× Passive Lysis Buffer (Promega™, E1941) was added to each well. […]. Subsequently, 20 μL of lysate was added to 100 μL CellTiter-Glo™ reagent on a LUMITRAC 200 plate (Greiner™ bio-one, 82050-726). Plates were briefly spun down and read on a GloMax-Multi Detection System (Promega™).
(§3) The cells listed in the tables above were incubated with OGM2 at 2 μM or 10 μM for 72 hours under standard cell culture conditions, and relative cell number was assessed using Cell Titer-Glo Luminescent Cell Viability Assay (Promega™) following the manufacturer's instructions. Luminescence was determined using a Cytation 5 reader and Gen5 software package (BioTek™). RNA expression of GPR68 and GPR4 in the corresponding cancer cell lines are listed, according to the publicly available The Human Protein Atlas version 22.0 and Ensembl version 103.38 (see proteinatlas.org). The consensus normalized expression value (“nTPM”=normalize transcript per million) was calculated as the maximum nTPM value for each gene in the two data sources.
A general note: ATP-based viability assays read luminescence as a measure of living cells.

A further test relates to BxPC-3. Described as above. The test is classed as cell-based. On the procedure: as §1, §2, §3

SMILES strings stand for the structures.

T2 sequence (P21453 whole entry, species assumed): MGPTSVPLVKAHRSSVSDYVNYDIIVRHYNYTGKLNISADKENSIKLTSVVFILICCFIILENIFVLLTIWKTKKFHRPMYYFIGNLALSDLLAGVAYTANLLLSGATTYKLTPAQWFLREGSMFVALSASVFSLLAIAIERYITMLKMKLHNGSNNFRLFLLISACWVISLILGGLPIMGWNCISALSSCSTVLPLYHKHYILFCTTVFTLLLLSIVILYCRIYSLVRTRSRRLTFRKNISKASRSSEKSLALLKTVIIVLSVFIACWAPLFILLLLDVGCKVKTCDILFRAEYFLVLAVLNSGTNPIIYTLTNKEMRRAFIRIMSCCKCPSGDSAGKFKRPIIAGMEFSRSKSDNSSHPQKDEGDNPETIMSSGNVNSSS
Sequence of CSNK2A2 (P19784 whole entry): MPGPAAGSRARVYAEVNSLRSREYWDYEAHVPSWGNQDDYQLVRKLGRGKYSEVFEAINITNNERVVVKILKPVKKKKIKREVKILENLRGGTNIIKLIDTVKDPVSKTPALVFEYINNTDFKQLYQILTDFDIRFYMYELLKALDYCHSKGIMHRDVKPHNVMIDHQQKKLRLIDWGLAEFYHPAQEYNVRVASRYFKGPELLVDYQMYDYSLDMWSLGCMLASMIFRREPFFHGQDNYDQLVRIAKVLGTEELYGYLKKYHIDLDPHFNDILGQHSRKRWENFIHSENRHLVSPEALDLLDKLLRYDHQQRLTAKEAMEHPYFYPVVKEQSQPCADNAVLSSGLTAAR
T14 sequence (Q6ZN16 whole entry): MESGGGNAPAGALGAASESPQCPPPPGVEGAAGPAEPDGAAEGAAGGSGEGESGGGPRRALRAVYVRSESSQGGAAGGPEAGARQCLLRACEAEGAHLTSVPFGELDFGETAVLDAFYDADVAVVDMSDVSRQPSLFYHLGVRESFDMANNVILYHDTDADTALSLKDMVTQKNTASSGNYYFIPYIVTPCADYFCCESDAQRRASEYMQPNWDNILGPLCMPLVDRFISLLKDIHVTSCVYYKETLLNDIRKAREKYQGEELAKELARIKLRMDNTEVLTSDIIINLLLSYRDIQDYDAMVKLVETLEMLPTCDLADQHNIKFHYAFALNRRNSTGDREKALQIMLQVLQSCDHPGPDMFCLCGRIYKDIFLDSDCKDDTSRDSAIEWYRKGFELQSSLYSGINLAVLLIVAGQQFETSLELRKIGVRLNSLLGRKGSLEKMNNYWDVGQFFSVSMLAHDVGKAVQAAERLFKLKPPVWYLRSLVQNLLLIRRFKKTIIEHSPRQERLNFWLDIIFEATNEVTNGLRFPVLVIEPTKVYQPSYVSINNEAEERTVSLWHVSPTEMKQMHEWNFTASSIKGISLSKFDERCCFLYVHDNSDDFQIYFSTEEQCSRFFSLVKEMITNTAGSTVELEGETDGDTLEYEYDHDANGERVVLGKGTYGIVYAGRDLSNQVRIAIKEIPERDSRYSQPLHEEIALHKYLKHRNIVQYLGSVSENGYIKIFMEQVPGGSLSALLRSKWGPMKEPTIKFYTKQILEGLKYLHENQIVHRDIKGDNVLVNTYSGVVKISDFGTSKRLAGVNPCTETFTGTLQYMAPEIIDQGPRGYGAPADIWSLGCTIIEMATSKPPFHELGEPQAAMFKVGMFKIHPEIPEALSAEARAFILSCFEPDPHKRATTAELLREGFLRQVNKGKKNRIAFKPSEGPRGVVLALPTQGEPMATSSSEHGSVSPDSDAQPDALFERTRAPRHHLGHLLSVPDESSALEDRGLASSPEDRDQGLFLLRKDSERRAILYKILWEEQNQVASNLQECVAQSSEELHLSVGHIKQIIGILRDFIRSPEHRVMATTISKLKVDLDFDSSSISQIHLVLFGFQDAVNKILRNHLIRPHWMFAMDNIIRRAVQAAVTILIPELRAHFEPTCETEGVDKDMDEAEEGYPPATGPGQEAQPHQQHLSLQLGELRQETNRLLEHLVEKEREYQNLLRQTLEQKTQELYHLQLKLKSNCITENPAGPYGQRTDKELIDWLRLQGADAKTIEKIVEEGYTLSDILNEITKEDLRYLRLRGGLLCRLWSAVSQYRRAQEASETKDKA
T1 sequence (O43293 whole entry): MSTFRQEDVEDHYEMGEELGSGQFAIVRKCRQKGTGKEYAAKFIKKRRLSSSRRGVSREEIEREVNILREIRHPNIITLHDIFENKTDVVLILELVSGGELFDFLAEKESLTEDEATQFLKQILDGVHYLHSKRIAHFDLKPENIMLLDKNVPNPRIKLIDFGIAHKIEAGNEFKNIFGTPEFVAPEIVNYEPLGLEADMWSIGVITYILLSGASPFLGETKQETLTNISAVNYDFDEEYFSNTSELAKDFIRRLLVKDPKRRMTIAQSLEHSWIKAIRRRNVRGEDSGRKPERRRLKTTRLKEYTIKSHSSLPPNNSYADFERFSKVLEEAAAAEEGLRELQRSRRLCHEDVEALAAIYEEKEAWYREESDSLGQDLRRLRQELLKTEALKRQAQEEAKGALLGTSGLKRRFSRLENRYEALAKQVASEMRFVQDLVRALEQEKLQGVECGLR

`CCc1ccc2c(c1)C1(NN=C(c3cccc4ccccc34)S1)C(=O)N2` (centres unmarked) [OGM1, 5-ethyl-5′-naphthalen-1-ylspiro[1H-indole-3,2′-3H-1,3,4-thiadiazole]-2-one]: the remaining binding at 10 µM turned out to be 91% at DAPK3; 100% on BRK; 100% at MEK3; 100% at HIPK2; 100% on MELK; 100% at MST1. For the same molecule, the remaining binding at 10 µM on ERK3 is 100%; in test [1], 100%; on MAP3K15, 100%; at CSNK2A2, 93%. The Antagonism is 3.1 on S1P1 (10 uM); −6.9 on CXCR4 (10 uM); −0.7 at C5aR (10 uM); 2.2 on PTH1 (10 uM); −8.2 at MCHR2 (10 uM). The Agonism at S1P1 (12.5 uM) is −0.4; at CXCR4 (12.5 uM) it was 1.5; at C5aR (12.5 uM), 3.1; on PTH1 (12.5 uM), 0.7; on MCHR2 (12.5 uM), 0.3.

Turning to `CCc1ccc2c(c1)C1(NN=C(c3ccccc3)S1)C(=O)N2` (centres unmarked) [OGM2], the “expression of ATF4, CHAC1, HMOX1, TFRC, SLC7A11” value in test [2] was “induced key markers of ferroptosis”. For the same molecule, the Class entry in the test on Panc02 is on record as “Sensitive (Sensitive (LC50=2 to 10 μM))”; in the test on BxPC-3, “Mildly”. Also, the results for the “% Survival 2 μM OGM” value in the test on Panc02 (72 hours) and in the test on BxPC-3 (72 hours) were 72.5% and 81.5%, respectively. Moreover, the “% Survival 10 μM OGM” value with Panc02 (72 hours) is given as 40.5%; with BxPC-3 (72 hours), 83.8%. The CC50 is 2 to 10 µM in the test with Panc02 (Mus musculus, Panc02, 72 hours, read-out: LC50 (the source's name)) and > 10 µM in the test on BxPC-3 (Homo sapiens, BXPC-3, 72 hours, read-out: LC50 (the source's name)).

These data come from US20240327364A1, “THERAPEUTIC TARGETING OF GPR68 TO INDUCE FERROPTOSIS” (University Of Maryland, Baltimore, priority 2023, published 2024).
